In PubChem BioAssay (NCI):
“And” between values parts separate entries of the source, which are not always exact repeats. Identical values can stand only once.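 Exposure lasted 48 hours, with cells grown in 96-well plates and compounds tested at five concentrations. GI50: concentration for 50% inhibition of growth. TGI: concentration producing complete growth inhibition.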

Legend:
Assay in all cases: inhibition of tumour cell growth, NCI panel, 48 h
[1] = system: K-562 leukemia
[2] = system: SK-MEL-2 melanoma
[3] = system: NCI/ADR-RES ovarian
[4] = system: HCT-116 colon
[5] = system: UO-31 renal
[6] = system: SNB-75 CNS
[7] = system: HOP-62 NSCLC
[8] = system: NCI-H23 lung
[9] = system: NCI-H522 lung
[10] = system: OVCAR-8 ovarian

SMILES	TGI [1] [µM]	TGI [2] [µM]	TGI [3] [µM]	TGI [4] [µM]	TGI [5] [µM]	TGI [6]	TGI [7]	TGI [8]	TGI [9] [µM]	TGI [10] [µM]	GI50 [1]	GI50 [2] [µM]	GI50 [3] [µM]	GI50 [4] [µM]	GI50 [5] [µM]	GI50 [6] [µM]	GI50 [7] [µM]	GI50 [8] [µM]	GI50 [9] [µM]	GI50 [10] [µM]
COc1ccc(-c2cc(-c3cc(C)cc(Br)c3O)no2)cc1	> 100	75	> 100	28.5	31.9	8.73 µM	41.9 µM	99.7 µM	30.2	> 100										
CCCCC(CC)COC(=O)C[N+](C)(C)CCOC(c1ccccc1)c1ccccc1 (centres undefined)	11.6	4.13	70.3	3.32	27.3	5.27 µM	28.6 µM	15.9 µM	3.67	17.5	3.23 µM	1.95	23.5	1.8	12.4	2.13	9.89	3.77	1.75	4.02
COc1cc(OC)c(C(=O)/C=C/c2cccc(C(F)(F)F)c2)c(OC)c1	4.83	3.37	5.95	1.59	5.24	7.9 µM	5.46 µM	3.48 µM	1.94	5.86	1.26 µM	1.22	1.4	0.806	1.43	1.88	1.56	1.14	0.857	1.41
CCOC(=O)C1CCN(S(=O)(=O)/N=C2/NC(=O)NC2=C(Cl)Cl)CC1	5.99	7.5	41.4	2.48	4.02	14.1 µM	16.5 µM	4.38 µM	4.28	19.9	1.82 µM	2.37	4.36	0.736	1.73	2.86	0.971	2.12	2.22	3.76
CCc1nc2cc(F)c(/C=C/C(=O)NO)cc2c(=O)n1CCc1ccccc1	> 100	0.863	0.982	11	0.648	13.8 µM	1.74 µM	7.07 µM	0.392	2.24	0.303 µM	0.293	0.284	0.313	0.2	0.356	0.291	0.375	0.171	0.287
C=C1C(=O)O[C@H]2[C@H]1CC/C(COC(=O)NCCCCNC(=O)OC/C1=C/CC[C@@]3(C)O[C@H]3[C@H]3OC(=O)C(=C)[C@@H]3CC1)=C\CC[C@@]1(C)O[C@@H]21	10.4	4.89	> 100	2.63	20.9	16.5 µM	14 µM	5.54 µM	0.375	8.26	0.665 µM	1.77	37.7	1.12	7.61	2.19	3.84	2.18	0.167	2.18
COc1ccc(/C=C/c2c(C(=O)/C=C/c3ccccc3)c(C)nc3ccccc23)cc1	7.19	5.06	7.52	2.6	2.54	4.44 µM	3.58 µM	4.19 µM	4.83	4.1	2.33 µM	2.11	2.51	1.03	1.28	1.46	1.89	1.73	1.72	1.75
CCCC(CCC)NCC(O)c1cc(-c2ccc(C(F)(F)F)cc2)nc(C(F)(F)F)c1 (centres undefined)	3.8	3.92	3.25	3.24	3.13	3.3 µM	3.12 µM	3.15 µM	3.26	3.68	1.93 µM	2.27	1.63	1.66	1.58	1.72	1.66	1.58	1.71	1.83
COc1cc(Cc2nccc3cc(OC)c(OC)cc23)c(C(C)=O)cc1OC	300	300	> 300		> 750	300 µM and > 750 µM	135 µM and 394 µM	300 µM and > 750 µM	300	3	37.6 µM and 194 µM				> 750	29.4	101	67.1	21.5	
COc1ccc(C(=O)c2cc(C)c(OC)c(C)c2)c(OC)c1O	> 100	> 100		> 100	> 54	> 100 µM	> 100 µM	> 100 µM		> 100	0.0236 µM	0.211	0.0257	0.103	0.0695	0.026	0.19	0.0879	< 0.0189	0.0459
Cc1cc(C)c(NC(=O)c2sc3nc4c(cc3c2N)C(=O)CCC4)c(C)c1	> 100	38.7	6.45	> 100	> 100	> 100 µM	> 100 µM	> 100 µM	3.06	> 100	1.9 µM	0.468	2.08	3.85	9.04	2.28	4.56	3.9	0.6	5.88
Cc1cc2nc(C=C(C(F)(F)F)C(F)(F)F)oc2cc1C	5.1	> 10	5.93	2.72	> 10	> 10 µM	9.72 µM	4.97 µM	6.35	6.68										
O=C(Nc1n[nH]c2cc(-c3ccccc3)ccc12)C1CC1	> 25	> 25	> 25	> 25	> 25	> 25 µM	> 25 µM	> 25 µM	> 25	> 25	1.42 µM	> 25	1.79	6.56	16.9	> 20.9	> 25	16.8	1.29	14.5
O=C1c2cccnc2-c2nc(-c3ccc(Cl)cc3)cc3c2c1nc1ccccc13	> 100	> 100	> 100	> 100	> 100	> 100 µM			> 100	> 100	38.7 µM	76.5	55.2	28.4	46.9	57.9			21	98.4
c1ccc(Sc2ccc(Cc3nc4cc5ccccc5cc4[nH]3)cc2)cc1	> 47.8	> 100	> 62.7	20.7	> 100	> 100 µM	> 75.5 µM	36.1 µM	> 62.9	> 92.1	0.279 µM	53.6	15.5	2.98	20.7	> 66.5	8.71	7.46	9.69	7.46
Cc1cc(C(=O)Nc2ccc3cc(CN4CCOCC4)ccc3n2)c(C)n1-c1ccccc1	> 55.3	5.89	4.69	17.2	33.5	15.8 µM	8.05 µM	6.77 µM	9.38	5.43	1.06 µM	2.44	1	1.68	2.24	3.42	1.72	0.974	2.67	1.21
COc1cc2ncnc(-n3ncc4cc(NC(=O)Nc5ccccc5)ccc43)c2cc1OC	15.5	3.51	17.6	4.82	2.84	5.69 µM		4.4 µM		28.3	2.86 µM	1.34	2.52	1.41	0.499	0.191	1.3	1.3		5.17
COc1ccc(-c2nc3ccccn3c2/C=C/C(=O)c2cc(OC)c(OC)c(OC)c2)cc1OC	> 100	7.19	8.04	12	12.7	> 100 µM	30 µM	> 100 µM	35.5	11.1	2.99 µM	2.37	2.18	2.62	0.552	3.92	4.42	3.78	2.74	2.83
Cc1ccc(NC(=O)c2cccc(C(C)(C)C#N)c2)cc1Nc1ccc2ncn(C)c(=O)c2c1	> 79.3	8.69	> 100	> 100	> 100	> 100 µM	> 100 µM	> 100 µM	> 100	> 100	0.484 µM	0.0692	4.12	0.1	0.475	12.7	1.11	0.304	3.88	4.96
CC(C)c1ccc(-c2cc(-c3cn[nH]c3-c3ccccn3)ccn2)cc1	> 25	> 25	> 25	> 25	> 25	> 25 µM	> 25 µM	> 25 µM	> 25	> 25	9.03 µM	9.52	7.98	10.3	6.6	> 9.11	12	11.7	6.82	9.57
CC/C=C\C[C@H](O)C/C=C1/C(=O)C=C[C@@H]1C/C=C\CCCC(=O)OC	21.7	4.2	10.8	2.92	3.4	26 µM	5.15 µM	4.25 µM	2.43	11.1	0.732 µM	1.84	2.61	0.572	1.75	11.7	1.48	1.75	1.03	2.61
CN1CCN(CCCNc2nc3ccc(Oc4ccc(NC(=O)Nc5cc(C(F)(F)F)ccc5F)cc4)cc3[nH]2)CC1	11.1	8.66	> 25	7.99	> 25	13.2 µM	7.25 µM	7.9 µM	7.27	13.5	4.84 µM	4.64	> 25	4.28	> 25	5.14	3.84	4.03	3.8	5.27
CC1(C)C(=O)/C(=C\c2cccnc2)C[C@]2(C)[C@H]3CC[C@@H]4[C@H]5[C@H](C(=O)/C=C/c6cccnc6)CC[C@]5(C(=O)O)CC[C@@]4(C)[C@]3(C)CC[C@@H]12	20.5	6.66	> 100	3.56		44.2 µM	4.5 µM	4.87 µM	5.99	> 100	2.05 µM	2.54	3.08	1.61		4.01	1.89	2.06	2.35	3.5
C=C(C)[C@@H]1CC[C@]2(CO)CC[C@]3(C)[C@H](CC[C@@H]4[C@@]5(C)C=C(C#N)C(=O)C(C)(C)[C@@H]5CC[C@]43C)[C@@H]12	> 100	4.59	5.04		2.77	3.39 µM	3.85 µM	6.05 µM	6.58	5.24	2.2 µM	1.91	1.81		1.05	1.04	1.74	2	1.9	1.88
CCNCCNc1cc(-c2ccc(C(F)(F)F)cc2)c(C#N)c2nc3ccccc3n12		3.87	2.98	1.32	2.77	2.54 µM	3.18 µM	3.25 µM	3.66	3.6		2.03	1.52	0.388	1.36	1.23	1.56	1.62	1.82	1.75
OCC1OC(n2cnc3c2NC=NC[C@H]3O)C(Cl)C1O (some centres undefined)		> 100	> 100	> 100	> 100	> 100 µM	> 100 µM	> 100 µM	> 100	> 100										
